Test results reported in patent US10457916B2, “Method for inducing differentiation of insulin-producing cells” (TOKYO INSTITUTE OF TECHNOLOGY, priority 2014, dated 2019).

How the values were obtained:
Type in all cases: cell-based, human
[1] = test system: endocrine progenitor cells; experiment: Stage 5 differentiation into endocrine cells, immunocytochemistry; details: for proportion of PDX1-positive/CP-negative cells / proportion of CP single-positive cells: end of stage 5; for proportion of CP single-positive cells: added to basal medium with exendin-4 and nicotinamide
Description: (§1) To this medium were added 50 ng/ml exendin-4 (Ex-4; Cell Sciences), 10 mM nicotinamide (NA; Sigma-Aldrich), and/or 100 μM 3-isobutyl-1-methylxanthine (IBMX; phosphodiesterase inhibitor; Wako), and/or 10 μM forskolin (FRKL; adenylate cyclase activator; Wako). The media were changed every two days.

[2] = test system: endocrine progenitor cells; experiment: Stage 5 differentiation into endocrine cells, quantitative RT-PCR
Description: as §1

[3] = test system: endocrine progenitor cells; experiment: Intracellular C-peptide content of cells differentiated at stage 5 (ELISA); details: differentiated cells at the end of stage 5
Description: as §1
The differentiated cells at the end of stage 5 were initially incubated at 37° C. for 30 min with DMEM (Life Technologies) containing minimal essential medium, 2.5 mM glucose and 1% B27 Supplement Xeno-Free CTS. This initial incubation was regarded as washing. Subsequently, the medium was discarded and then the cells were incubated with DMEM (100 μl per well) containing 2.5 mM glucose at 37° for 1 hr. After collecting the supernatant, the same cells were further cultured for 1 hr in 20 mM glucose-containing DMEM or 2.5 mM glucose-containing DMEM supplemented with various stimulants, e.g., 2 μM (−)-Bay K8644 (Sigma-Aldrich), 100 μM tolbutamide (Wako), 250 μM carbachol (Sigma-Aldrich), 0.5 mM IBMX or 30 mM potassium chloride (KCl) (Wako). […] Intracellular C-peptide and protein levels were quantitatively determined. C-peptide level was measured using a human C-peptide ELISA kit (ALPCO Diagnostics) according to the manufacturer's instructions. The total protein in cell lysate was quantitatively determined using a Bio-Rad reagent kit (Bio-Rad). […]

[4] = test system: differentiated cells at the end of stage 5; experiment: C-peptide secretion in response to glucose and insulin secretagogues (ELISA); details: 1 hr, versus 2.5 mM glucose without secretagogues; 30 mM KCl, 100 μM tolbutamide, 2 μM Bay K8644, 0.5 mM IBMX, 250 μM carbachol
Description: The differentiated cells at the end of stage 5 were initially incubated at 37° C. for 30 min with DMEM (Life Technologies) containing minimal essential medium, 2.5 mM glucose and 1% B27 Supplement Xeno-Free CTS. This initial incubation was regarded as washing. Subsequently, the medium was discarded and then the cells were incubated with DMEM (100 μl per well) containing 2.5 mM glucose at 37° for 1 hr. After collecting the supernatant, the same cells were further cultured for 1 hr in 20 mM glucose-containing DMEM or 2.5 mM glucose-containing DMEM supplemented with various stimulants, e.g., 2 μM (−)-Bay K8644 (Sigma-Aldrich), 100 μM tolbutamide (Wako), 250 μM carbachol (Sigma-Aldrich), 0.5 mM IBMX or 30 mM potassium chloride (KCl) (Wako). The supernatant was collected again and stored at −20° C. until analysis. Finally, the cells were lysed with 0.01% Triton X-100 in PBS containing 1% protease inhibitor cocktail (Nacalai Tesque). Intracellular C-peptide and protein levels were quantitatively determined. C-peptide level was measured using a human C-peptide ELISA kit (ALPCO Diagnostics) according to the manufacturer's instructions. The total protein in cell lysate was quantitatively determined using a Bio-Rad reagent kit (Bio-Rad). The amount of C-peptide was normalized against the corresponding amount of the total protein.

PG cells [5] = experiment: Stage 3 differentiation into pancreatic progenitor cells, immunocytochemistry
Source text: (§2) The medium was changed every two days.

PG cells [6] = experiment: Stage 3 differentiation into pancreatic progenitor cells, quantitative RT-PCR; details: higher concentrations of NOGGIN at stage 3, versus Nog 100
Source text: as §2

[7] = 200 ng/ml NOGGIN in stage-3 media
[8] = 200 ng/ml NOGGIN in stage-3 media with RA, KAAD-cyclopamine, SB431542

CC(C)Cn1c(=O)n(C)c(=O)c2[nH]cnc21 [IBMX, 3-isobutyl-1-methylxanthine]
proportion of PDX1-positive/CP-negative cells [1]: approximately 22%
proportion of CP single-positive cells [1]: 6.5-6.7%
expression levels of β-cell specific genes ([2]; IBMX-induced cells versus FRKL-induced cells): relatively higher
INS expression ([2]; added to basal medium (DMEM/F12, 1% B27, exendin-4 and nicotinamide) at stage 5, versus DMSO): significantly upregulated
expression levels of β-cell maturity genes (PDX1, NKX6.1, MAF-A, ISL-1, UCN3, GCK, IAPP, SLC30A8) ([2]; end of stage 5, versus DMSO-induced cells): remarkably higher
intracellular C-peptide contents [3]: approximately 66 ng/mg protein
increase of C-peptide secretion [4]: approximately 4.9 fold

[Cl-].[K+] [KCl, potassium chloride]
increase of C-peptide secretion [4]: approximately 8.3 fold

CCCCNC(=O)NS(=O)(=O)c1ccc(C)cc1 [tolbutamide]
increase of C-peptide secretion [4]: approximately 3.0 fold

C=C[C@@]1(C)CC(=O)[C@]2(O)[C@@]3(C)[C@@H](O)CCC(C)(C)[C@@H]3[C@H](O)[C@H](OC(C)=O)[C@@]2(C)O1 [FRKL, forskolin]
proportion of PDX1-positive/CP-negative cells [1]: approximately 27%
proportion of CP single-positive cells [1]: 5.6-6.4%
intracellular C-peptide contents [3]: approximately 62 ng/mg protein

COC(=O)C1=C(C)NC(C)=C([N+](=O)[O-])C1c1ccccc1C(F)(F)F (single isomer, unassigned; (-)) [(−) BAY K8644]
increase of C-peptide secretion [4]: approximately 4.9 fold

C[N+](C)(C)CCOC(N)=O [carbachol]
increase of C-peptide secretion [4]: approximately 7.0 fold

B1: NOGGIN: recombinant human NOGGIN, BMP signaling inhibitor (R&D Systems) (protein, UniProt Q13253 28-232, looked up)
Noggin: QHYLHIRPAPSDNLPLVDLIEHPDPIFDPKEKDLNETLLRSLLGGHYDPGFMATSPPEDRPGGGGGAAGGAEDLAELDQLLRQRPSGAMPSEIKGLEFSEGLAQGKKQRLSKKLRRKLQMWLWSQTFCPVLYAWNDLGSRFWPRYVKVGSCFSKRSCSVPEGMVCKPSKSVHLTVLRWRCQRRGGQRCGWIPIQYPIISECKCSC
AFP-positive hepatic cells and CDX2-positive intestinal progenitor cells appearing (PG cells [5]; 100 ng/ml NOGGIN at stage 3): considerable proportion
AFP-positive cells in the total DAPI-positive cells (PG cells [5]; [7]): 4%
CDX2-positive cells in the total DAPI-positive cells (PG cells [5]; [7]): 8%
PDX1-positive cells co-expressing HNF-6 (PG cells [5]; [8]): about 62%
PDX1-positive cells co-expressing SOX9 (PG cells [5]; [8]): about 59%
numbers of AFP-positive hepatic cells and CDX2-positive intestinal progenitor cells (PG cells [5]; 200-300 ng/ml NOGGIN at stage 3, versus 100 ng/ml): remarkably reduced
expression level of early-stage pancreatic dorsal bud gene HLXB9 (PG cells [6]): remarkably upregulated
expression levels of PDX-1 and posterior foregut genes HNF6 and NKX6.1 (PG cells [6]): remarkably upregulated
gene expression levels of CDX2 and AFP (PG cells [6]): remarkably reduced
proportion of EC cells ([1]; NOGGIN at 200 ng/ml compared to 100 ng/ml at stages 3 and 4): higher proportion
